Laboratory results as given in PubChem BioAssay AID328 (DTP/NCI, 2004).
Values joined by “and” are separate entries in the source; they are usually repeats but may differ in a detail not shown here. Equal values may be shown once. Toxic doses and inconclusive results are not listed.

Tested on: BDF1 mice, P388 leukemia ip, median survival T/C
Test: NCI In Vivo Anticancer Drug Screen. Data for tumor model P388 Leukemia (intraperitoneal) in B6D2F1 (BDF1) mice
Details: endpoint: median survival time, higher = longer survival
Procedure, shortened: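 Antitumour effect was judged in vivo: survival in drug-treated mice, normalised to that of vehicle-dosed controls, gives the reported T/C.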

[1] = dose: 100.0 mg/kg/injection, schedule: Q04DX003 (ip), vehicle: Klucel (hydroxypropylcellulose) (HPC)
[2] = dose: 6.25 mg/kg/injection, schedule: Q01DX009 (ip), vehicle: other
[3] = dose: 12.5 mg/kg/injection, schedule: Q01DX009 (ip), vehicle: other
[4] = dose: 100.0 mg/kg/injection, schedule: Q04DX003 (ip), vehicle: saline
[5] = dose: 200.0 mg/kg/injection, schedule: Q04DX003 (ip), vehicle: saline
[6] = dose: 400.0 mg/kg/injection, schedule: Q04DX003 (ip), vehicle: saline

SMILES: O=P(NC12CC3CC(CC(C3)C1)C2)(N1CC1)N1CC1
- T/C (dose: 2.2 mg/kg/injection, schedule: Q01DX009 (ip), vehicle: Klucel (hydroxypropylcellulose) (HPC)): 120 % of control
- T/C (dose: 4.4 mg/kg/injection, schedule: Q01DX009 (ip), vehicle: Klucel (hydroxypropylcellulose) (HPC)): 183 % of control
- T/C (dose: 6.6 mg/kg/injection, schedule: Q01DX009 (ip), vehicle: Klucel (hydroxypropylcellulose) (HPC)): 238 % of control and 154 % of control and 211 % of control
- T/C (dose: 10.0 mg/kg/injection, schedule: Q01DX009 (ip), vehicle: Klucel (hydroxypropylcellulose) (HPC)): 244 % of control and 88 % of control and 122 % of control
- T/C (dose: 15.0 mg/kg/injection, schedule: Q01DX009 (ip), vehicle: Klucel (hydroxypropylcellulose) (HPC)): 105 % of control

SMILES: CCC(C)n1ncc2c(N(C)C)ncnc21 (stereo unspecified)
- T/C (dose: 12.5 mg/kg/injection, schedule: Q01DX009 (ip), vehicle: Klucel (hydroxypropylcellulose) (HPC)): 100 % of control
- T/C (dose: 50.0 mg/kg/injection, schedule: Q01DX009 (ip), vehicle: Klucel (hydroxypropylcellulose) (HPC)): 92 % of control and 95 % of control
- T/C [1]: 95 % of control
- T/C (dose: 200.0 mg/kg/injection, schedule: Q04DX003 (ip), vehicle: Klucel (hydroxypropylcellulose) (HPC)): 120 % of control

SMILES: CCC(=O)/C=C/c1ccccc1
- T/C (dose: 50.0 mg/kg/injection, schedule: Q01DX009 (ip), vehicle: saline with Tween-80): 93 % of control
- T/C (dose: 100.0 mg/kg/injection, schedule: Q01DX009 (ip), vehicle: saline with Tween-80): 109 % of control
- T/C (dose: 200.0 mg/kg/injection, schedule: Q01DX009 (ip), vehicle: saline with Tween-80): 118 % of control

SMILES: CCCCNC(=O)Nc1ccc(N(C)C)cc1
- T/C (dose: 100.0 mg/kg/injection, schedule: Q04DX003 (ip), vehicle: saline with Tween-80): 90 % of control
- T/C (dose: 200.0 mg/kg/injection, schedule: Q04DX003 (ip), vehicle: saline with Tween-80): 90 % of control
- T/C (dose: 400.0 mg/kg/injection, schedule: Q04DX003 (ip), vehicle: saline with Tween-80): 100 % of control

SMILES: COc1cccc2c1C(=O)c1c(O)c3c(c(O)c1C2=O)CC(O)(C(=O)CO)CC3OC1CC(N)C(O)C(C)O1 (stereo unspecified) (tested in a mixture with another compound)
- T/C (dose: 1.56 mg/kg/injection, schedule: Q01DX009 (ip), vehicle: other): 118 % of control
- T/C (dose: 3.13 mg/kg/injection, schedule: Q01DX009 (ip), vehicle: other): 106 % of control
- T/C [2]: 93 % of control
- T/C [3]: 108 % of control

SMILES: O=C(Nc1ccc(Nc2ccncc2)cc1)c1ccc(Nc2ccnc3ccc([N+](=O)[O-])cc23)cc1[N+](=O)[O-]
- T/C (dose: 12.5 mg/kg/injection, schedule: Q01DX009 (ip), vehicle: saline): 93 % of control
- T/C (dose: 50.0 mg/kg/injection, schedule: Q01DX009 (ip), vehicle: saline): 88 % of control
- T/C (dose: 50.0 mg/kg/injection, schedule: Q04DX003 (ip), vehicle: saline): 111 % of control
- T/C (dose: 100.0 mg/kg/injection, schedule: Q01DX009 (ip), vehicle: saline): 91 % of control
- T/C [4]: 105 % of control
- T/C (dose: 200.0 mg/kg/injection, schedule: Q01DX009 (ip), vehicle: saline): 98 % of control
- T/C [5]: 93 % of control
- T/C (dose: 400.0 mg/kg/injection, schedule: Q01DX009 (ip), vehicle: saline): 119 % of control
- T/C [6]: 88 % of control

SMILES: CCCCCCCCCCC(N)P(=O)(O)O (stereo unspecified)
- T/C (dose: 12.5 mg/kg/injection, schedule: Q04DX003 (ip), vehicle: saline with Tween-80): 92 % of control
- T/C (dose: 25.0 mg/kg/injection, schedule: Q04DX003 (ip), vehicle: saline with Tween-80): 92 % of control
- T/C (dose: 50.0 mg/kg/injection, schedule: Q04DX003 (ip), vehicle: saline with Tween-80): 92 % of control

SMILES: c1ccc(CN2CCn3nccc32)cc1
- T/C [2]: 98 % of control
- T/C [3]: 90 % of control
- T/C (dose: 12.5 mg/kg/injection, schedule: Q04DX003 (ip), vehicle: other): 104 % of control
- T/C (dose: 25.0 mg/kg/injection, schedule: Q01DX009 (ip), vehicle: other): 91 % of control
- T/C (dose: 25.0 mg/kg/injection, schedule: Q04DX003 (ip), vehicle: other): 91 % of control
- T/C (dose: 50.0 mg/kg/injection, schedule: Q01DX009 (ip), vehicle: other): 94 % of control
- T/C (dose: 50.0 mg/kg/injection, schedule: Q04DX003 (ip), vehicle: other): 91 % of control
- T/C (dose: 100.0 mg/kg/injection, schedule: Q01DX009 (ip), vehicle: other): 92 % of control
- T/C (dose: 100.0 mg/kg/injection, schedule: Q04DX003 (ip), vehicle: other): 92 % of control
- T/C (dose: 200.0 mg/kg/injection, schedule: Q04DX003 (ip), vehicle: other): 96 % of control

SMILES: CN(CCCN(C)N=Nc1ccccc1C(=O)O)N=Nc1ccccc1C(=O)O
- T/C [4]: 92 % of control
- T/C [5]: 88 % of control
- T/C [6]: 92 % of control

SMILES: Cc1c(CCl)c(C)c(CCl)c(C)c1CCl
- T/C [1]: 108 % of control

SMILES: CCC(CO)NC(=O)/C=C/c1cc(OC)ccc1OC (stereo unspecified)
- T/C (dose: 400.0 mg/kg/injection, schedule: Q01DX009 (ip), vehicle: saline with Tween-80): 91 % of control
